Tests used:
[1] = tested on: wild type E. coli (ATCC 25922); assay: Bacterial cytological profiling at pH 4, 5.5, 7 (Example 8), E. coli; type: cell-based; conditions: pH 5.5 and 7
Experimental: This bacterial cytological profiling (BCP) investigation uses methods and materials described previously by Nonejuie, P., Burkart, M., Poglianoa, K., Pogiano, J. (2013). Bacterial cytological profiling rapidly identifies the cellular pathways targeted by antibacterial molecules. Proc. Natl. Acad. Sci. U.S.A. 110(40):16169-16174. doi: 10.1073/pnas.1311066110.
For viable cell counts, cells are grown to OD600≈0.4 and diluted 1:1 into buffered or unbuffered media containing various compound concentrations. Samples are then collected and serially diluted (1:10) on a 96 well plate. Five microliters from each well are spotted on LB plates, incubated at 30° C., and viable cells are counted the next day.
Samples are collected at 10, 30, 120, and 240 min of exposure for viable cell count and imaging. For imaging, E. coli and S. aureus 200 μL of treated cells per time point are stained with 0.8 μg/mL FM4-64, 1.5 μg/mL DAPI, and 0.4 μM SYTOXGreen (Molecular Probes/Invitrogen). P. aeruginosa samples are stained 0.4 μM SYTOX Green, 28 μg/mL DAN, and 1 μg/mL FM 4-64. Cells are transferred to an agarose pad (20% LB, 1% agarose) for imaging.
For Nu-3 and Nu-8 stocks (at pH 4, 5.5 and 7), stock concentration is 500 mg/mL. For pH 4, the stocks are prepared by dissolving Nu-3 in 25 mM citrate buffer and Nu-8 in 350 mM citric acid. For pH 5.5, the stocks are prepared by dissolving Nu-3 in 25 mM citric-phosphate and Nu-8 in 25 mM critic. For pH 7, the stocks are prepared by dissolving Nu-3 and Nu-8 in 25 mM Sorensen phosphate buffer. 2×LB (lysogeny broth) solutions are prepared with 50 mM citrate buffer for pH 4, 50 mM citrate-phosphate buffer for pH 5.5, and 50 mM Sorensen phosphate buffer for pH 7.

[2] = tested on: bacterial strains; assay: MIC at pH 3.5 in human and mouse urine; type: cell-based
Text: Bacterial strains evaluated in this study include Escherichia coli, Klebsiella spp, Serratia marcescens, Proteus mirabilis/vulgaris, Citrobacter spp, Providencia spp, Morganella morganii, Pseudomonas aeruginosa, Staphylococcus aureus (MRSA only), and Enterococcus faecalis. […]

[3] = tested on: Escherichia coli (strain CFT073, TPPS 1041); assay: Urinary tract infection model in BALB/c mice, confirmatory efficacy (Example 11); type: in vivo; conditions: for bacterial burden (bladder): 20 minutes post-treatment
Text: Female BALB/c mice (20-22 g) ordered from Envigo are acclimated to housing conditions and handled in accordance with Animal Use Protocol (AUP) number TP-08. Animals are fed irradiated Teklad Global 29 18 Rodent Diet and water ad libitum. Mice are housed 6/cage in static cages with irradiated ⅛″ Teklad corn cobbedding 7902 inside bioBubble® clean rooms that provide H.E.P.A filtered air into the bubble environment at 100 complete air changes per hour. The environment is controlled to a temperature range of 74°±4° F. and a humidity range of 30-70%. All procedures carried out in this experiment are conducted in compliance with the laws, regulations, and guidelines of the National Institutes of Health and with the approval of the TransPharm Preclinical Solutions Animal Care and Use Committee.
A clinical isolate of Escherichia coli (strain CFT073, TPPS 1041) are procured from the University of Michigan.
The organism is grown overnight at 37° C. in ambient atmosphere on trypticase soy agar plates supplemented with 5% sheep blood cells. The culture is aseptically swabbed and transferred to tubes of trypticase soy broth. The optical density is determined at 600 nm. The culture is diluted to provide an inoculum of approximately 7.5 login CFU per mouse in a volume of 30 μL. Instillation of the bacterial challenge constituted time 0 hour for the study. Inoculum counts are estimated before inoculation by optical density and confirmed after inoculation by dilution and back counts.
One hour prior to bacterial challenge, water is removed from animal cages. On Day 0 at 0 hours, mice are anesthetized using isoflurane and urine is expressed from the bladder by applying gentle pressure to the abdomen with the thumb. Mice are infected with bacteria via transurethral injection in a volume of 30 μL. Water is returned to the cages immediately following the challenge. Challenge is performed in a BL2 surgical suite.
Nu-8 (Test article) is prepared immediately before each dosing. Nu-8 is dissolved in sterile saline and adjusted to pH 3.5 with phosphoric acid. At 23 hours post-challenge, water is removed from animal cages. One hour later, mice are anesthetized using isoflurane and residual urine is expressed from the bladder. Mice are treated with test article or controls via transurethral dosing in a volume of 30 μL according to TABLE 9 (showing Animal Challenge and Treatment Schedule). All treatments are administered in a BSL2 surgical suite.
Immediately following treatment administration, the urethral opening is occluded using Locktite gel superglue. One drop of glue is placed at the urethral opening and the opening is held together for 5-10 seconds using tissue forceps to ensure the urethral opening is occluded and the adhesive is dry. Animals remained under anesthetic following urethral occlusion. […]

CCCCOP(=O)(O)OC[C@H]1O[C@@H](n2ccc(N)nc2=O)C[C@@H]1OP(=O)(O)OCCCC [Nu-8, sodium ((2R,3S,5R)-5-(4-amino-2-oxopyrimidin-1(2H)-yl)-3-((butoxyoxidophosphor-yl)oxy)tetrahydrofuran-2-yl)methyl butyl phosphate]
effect on cell permeability, viability and growth [1]: alters E. coli cell permeability and reduces cell viability and growth | MICs in human and mouse urine [2]: comparable to those of Nu-8 in Mueller Hinton broth | bacterial burden (bladder) ([3]; 205 mg/kg pH 3.5 transurethral): 6.5 log 10 | bacterial burden (bladder) ([3]; 410 mg/kg pH 3.5 transurethral): 5.0 log 10 | average bladder CFU burden ([3]; 820 mg/kg pH 3.5 transurethral, 10 minutes post-treatment): 6.3 log 10 | bacterial burden (bladder) ([3]; 820 mg/kg pH 3.5 transurethral): 5.4 log 10

From patent US12054509B2, “Antimicrobial compounds, compositions, and uses thereof” (Lakewood Amedex, Inc., priority 2017, dated 2024)
